What was measured:
[1] = target: T1, Histone-lysine N-methyltransferase EZH2 (Homo sapiens, UniProt Q15910); experiment: Inhibition of human EZH2 using core histone as substrate incubated for 1 hr by fluorescence based assay
Target sequence in this assay (Q15910 whole entry): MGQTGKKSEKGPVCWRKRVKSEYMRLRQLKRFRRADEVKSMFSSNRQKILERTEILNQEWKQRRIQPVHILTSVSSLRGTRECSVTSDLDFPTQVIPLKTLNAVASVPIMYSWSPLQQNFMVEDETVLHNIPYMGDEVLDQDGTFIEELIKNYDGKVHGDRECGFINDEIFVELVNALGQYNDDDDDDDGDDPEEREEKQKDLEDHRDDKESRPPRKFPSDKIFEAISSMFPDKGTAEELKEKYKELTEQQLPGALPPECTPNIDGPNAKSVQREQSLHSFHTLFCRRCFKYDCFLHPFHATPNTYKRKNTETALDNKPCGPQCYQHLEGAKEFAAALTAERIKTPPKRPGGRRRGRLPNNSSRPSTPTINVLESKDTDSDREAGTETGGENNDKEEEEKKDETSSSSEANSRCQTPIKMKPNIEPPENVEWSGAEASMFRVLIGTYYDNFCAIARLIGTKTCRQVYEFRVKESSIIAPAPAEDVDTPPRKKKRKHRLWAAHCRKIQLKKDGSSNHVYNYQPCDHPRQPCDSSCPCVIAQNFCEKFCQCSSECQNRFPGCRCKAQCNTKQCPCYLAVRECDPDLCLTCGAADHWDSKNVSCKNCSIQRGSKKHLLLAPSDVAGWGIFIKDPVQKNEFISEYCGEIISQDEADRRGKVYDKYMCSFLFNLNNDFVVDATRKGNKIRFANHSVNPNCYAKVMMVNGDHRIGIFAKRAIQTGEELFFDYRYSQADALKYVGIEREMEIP

[2] = target: T1, Histone-lysine N-methyltransferase EZH2; experiment: Inhibition of human EZH2 using core histone as substrate at 100 uM incubated for 1 hr by fluorescence based assay relative to control
Target sequence in this assay (Q15910 whole entry, looked up): as the sequence (Q15910 whole entry) above

Histone deacetylase 1 = Histone deacetylase 1 (Homo sapiens, UniProt Q13547); experiment: Inhibition of human recombinant HDAC1 using AMC-K(Ac)GL as substrate by fluorescence based assay
Sequence of Histone deacetylase 1 (Q13547 whole entry): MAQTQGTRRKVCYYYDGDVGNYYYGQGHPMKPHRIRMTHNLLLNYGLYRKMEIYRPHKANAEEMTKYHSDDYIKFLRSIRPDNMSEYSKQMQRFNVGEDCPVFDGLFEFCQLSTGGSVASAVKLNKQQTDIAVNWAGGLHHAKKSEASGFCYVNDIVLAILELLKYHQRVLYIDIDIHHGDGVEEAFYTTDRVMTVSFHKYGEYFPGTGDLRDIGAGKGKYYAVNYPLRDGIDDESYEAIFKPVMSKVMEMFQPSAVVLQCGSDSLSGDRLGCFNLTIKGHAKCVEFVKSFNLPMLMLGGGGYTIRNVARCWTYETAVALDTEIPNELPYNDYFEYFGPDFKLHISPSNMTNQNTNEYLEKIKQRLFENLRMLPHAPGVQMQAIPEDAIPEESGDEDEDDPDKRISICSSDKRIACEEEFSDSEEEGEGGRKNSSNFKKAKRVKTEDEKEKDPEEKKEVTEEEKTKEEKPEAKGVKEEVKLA

Histone deacetylase 3 = Histone deacetylase 3 (Homo sapiens, UniProt O15379); experiment: Inhibition of human recombinant HDAC3 using AMC-K(Ac)GL as substrate by fluorescence based assay
Sequence of Histone deacetylase 3 (O15379 whole entry): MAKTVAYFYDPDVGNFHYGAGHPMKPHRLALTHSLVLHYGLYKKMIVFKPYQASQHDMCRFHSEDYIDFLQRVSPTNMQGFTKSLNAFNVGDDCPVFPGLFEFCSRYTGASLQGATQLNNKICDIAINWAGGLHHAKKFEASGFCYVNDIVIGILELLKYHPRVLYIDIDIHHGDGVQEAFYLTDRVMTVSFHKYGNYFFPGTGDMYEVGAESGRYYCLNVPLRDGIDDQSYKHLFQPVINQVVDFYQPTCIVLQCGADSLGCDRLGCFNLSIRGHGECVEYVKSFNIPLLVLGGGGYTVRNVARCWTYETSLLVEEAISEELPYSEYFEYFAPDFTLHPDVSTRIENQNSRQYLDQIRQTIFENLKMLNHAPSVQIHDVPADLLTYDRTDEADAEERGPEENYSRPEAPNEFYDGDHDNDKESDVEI

Histone deacetylase 2 = Histone deacetylase 2 (Homo sapiens, UniProt Q92769)
Sequence of Histone deacetylase 2 (Q92769 whole entry): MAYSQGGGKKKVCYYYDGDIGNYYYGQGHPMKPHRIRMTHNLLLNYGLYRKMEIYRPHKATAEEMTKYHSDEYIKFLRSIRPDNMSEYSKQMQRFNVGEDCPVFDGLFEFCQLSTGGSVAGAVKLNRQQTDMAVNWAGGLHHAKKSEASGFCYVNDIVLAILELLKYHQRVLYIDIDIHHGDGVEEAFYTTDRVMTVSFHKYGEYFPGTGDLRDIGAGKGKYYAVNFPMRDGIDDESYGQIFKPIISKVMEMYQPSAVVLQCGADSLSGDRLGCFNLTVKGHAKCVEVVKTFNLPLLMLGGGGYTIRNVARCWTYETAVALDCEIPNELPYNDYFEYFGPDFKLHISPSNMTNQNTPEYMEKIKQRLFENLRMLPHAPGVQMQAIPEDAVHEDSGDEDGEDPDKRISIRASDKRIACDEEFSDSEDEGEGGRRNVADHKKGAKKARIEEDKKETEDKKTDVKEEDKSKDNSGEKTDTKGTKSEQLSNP
Description: Inhibition of human recombinant HDAC2 using AMC-K(Ac)GL as substrate by fluorescence based assay

Histone deacetylase 5 = Histone deacetylase 5 (Homo sapiens, UniProt Q9UQL6); experiment: Inhibition of human recombinant HDAC5 using AMC-K(TFA)GL as substrate by fluorescence based assay
Sequence of Histone deacetylase 5 (Q9UQL6 whole entry): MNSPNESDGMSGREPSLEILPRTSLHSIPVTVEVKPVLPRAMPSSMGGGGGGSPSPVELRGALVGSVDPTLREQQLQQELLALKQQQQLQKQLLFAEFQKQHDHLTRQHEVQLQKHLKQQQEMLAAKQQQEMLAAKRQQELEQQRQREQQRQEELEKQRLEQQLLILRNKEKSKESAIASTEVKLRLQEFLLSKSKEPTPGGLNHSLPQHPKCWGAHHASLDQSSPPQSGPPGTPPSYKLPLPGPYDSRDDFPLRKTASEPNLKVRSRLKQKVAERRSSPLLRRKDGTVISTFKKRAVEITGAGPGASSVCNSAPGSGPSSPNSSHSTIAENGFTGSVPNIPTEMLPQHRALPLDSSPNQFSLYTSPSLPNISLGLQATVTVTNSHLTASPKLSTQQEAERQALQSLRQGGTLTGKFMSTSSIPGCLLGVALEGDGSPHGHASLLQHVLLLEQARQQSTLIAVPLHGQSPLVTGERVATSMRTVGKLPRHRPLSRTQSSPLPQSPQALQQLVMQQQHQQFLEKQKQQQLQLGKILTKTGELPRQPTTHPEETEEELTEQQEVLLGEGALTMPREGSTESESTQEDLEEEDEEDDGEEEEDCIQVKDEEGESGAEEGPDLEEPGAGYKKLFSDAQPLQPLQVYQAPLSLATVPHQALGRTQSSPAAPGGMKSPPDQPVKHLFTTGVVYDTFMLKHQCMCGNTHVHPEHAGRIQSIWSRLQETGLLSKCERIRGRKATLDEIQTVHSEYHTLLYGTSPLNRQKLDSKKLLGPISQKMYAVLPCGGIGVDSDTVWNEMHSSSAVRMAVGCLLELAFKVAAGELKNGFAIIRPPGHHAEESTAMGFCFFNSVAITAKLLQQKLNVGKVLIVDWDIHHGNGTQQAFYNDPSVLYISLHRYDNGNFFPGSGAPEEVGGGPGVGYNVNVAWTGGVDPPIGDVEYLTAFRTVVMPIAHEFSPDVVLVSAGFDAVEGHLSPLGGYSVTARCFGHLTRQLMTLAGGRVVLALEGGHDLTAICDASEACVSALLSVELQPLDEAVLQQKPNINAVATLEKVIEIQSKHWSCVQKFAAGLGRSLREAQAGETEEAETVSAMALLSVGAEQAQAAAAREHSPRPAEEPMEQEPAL

Histone deacetylase 8 = target: T2, Histone deacetylase 8 (Homo sapiens, UniProt Q9BY41); experiment: Inhibition of human recombinant HDAC8 using AMC-K(Ac)GL as substrate by fluorescence based assay
T2 sequence (Q9BY41 whole entry): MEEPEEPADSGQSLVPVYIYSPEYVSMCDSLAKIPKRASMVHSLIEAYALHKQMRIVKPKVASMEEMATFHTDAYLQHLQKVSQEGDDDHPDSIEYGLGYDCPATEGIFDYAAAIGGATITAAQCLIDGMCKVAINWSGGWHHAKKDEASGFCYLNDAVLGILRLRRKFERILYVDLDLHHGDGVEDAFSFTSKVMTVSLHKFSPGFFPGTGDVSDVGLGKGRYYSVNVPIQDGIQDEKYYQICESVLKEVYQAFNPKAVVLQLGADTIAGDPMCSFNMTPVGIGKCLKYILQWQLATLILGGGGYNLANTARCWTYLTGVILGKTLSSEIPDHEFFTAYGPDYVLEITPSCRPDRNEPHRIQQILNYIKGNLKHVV

[3] = target: T3, Protein deacetylase HDAC6 (Homo sapiens, UniProt Q9UBN7); experiment: Inhibition of human recombinant HDAC6 using AMC-K(Ac)GL as substrate by fluorescence based assay
T3 sequence (Q9UBN7 whole entry): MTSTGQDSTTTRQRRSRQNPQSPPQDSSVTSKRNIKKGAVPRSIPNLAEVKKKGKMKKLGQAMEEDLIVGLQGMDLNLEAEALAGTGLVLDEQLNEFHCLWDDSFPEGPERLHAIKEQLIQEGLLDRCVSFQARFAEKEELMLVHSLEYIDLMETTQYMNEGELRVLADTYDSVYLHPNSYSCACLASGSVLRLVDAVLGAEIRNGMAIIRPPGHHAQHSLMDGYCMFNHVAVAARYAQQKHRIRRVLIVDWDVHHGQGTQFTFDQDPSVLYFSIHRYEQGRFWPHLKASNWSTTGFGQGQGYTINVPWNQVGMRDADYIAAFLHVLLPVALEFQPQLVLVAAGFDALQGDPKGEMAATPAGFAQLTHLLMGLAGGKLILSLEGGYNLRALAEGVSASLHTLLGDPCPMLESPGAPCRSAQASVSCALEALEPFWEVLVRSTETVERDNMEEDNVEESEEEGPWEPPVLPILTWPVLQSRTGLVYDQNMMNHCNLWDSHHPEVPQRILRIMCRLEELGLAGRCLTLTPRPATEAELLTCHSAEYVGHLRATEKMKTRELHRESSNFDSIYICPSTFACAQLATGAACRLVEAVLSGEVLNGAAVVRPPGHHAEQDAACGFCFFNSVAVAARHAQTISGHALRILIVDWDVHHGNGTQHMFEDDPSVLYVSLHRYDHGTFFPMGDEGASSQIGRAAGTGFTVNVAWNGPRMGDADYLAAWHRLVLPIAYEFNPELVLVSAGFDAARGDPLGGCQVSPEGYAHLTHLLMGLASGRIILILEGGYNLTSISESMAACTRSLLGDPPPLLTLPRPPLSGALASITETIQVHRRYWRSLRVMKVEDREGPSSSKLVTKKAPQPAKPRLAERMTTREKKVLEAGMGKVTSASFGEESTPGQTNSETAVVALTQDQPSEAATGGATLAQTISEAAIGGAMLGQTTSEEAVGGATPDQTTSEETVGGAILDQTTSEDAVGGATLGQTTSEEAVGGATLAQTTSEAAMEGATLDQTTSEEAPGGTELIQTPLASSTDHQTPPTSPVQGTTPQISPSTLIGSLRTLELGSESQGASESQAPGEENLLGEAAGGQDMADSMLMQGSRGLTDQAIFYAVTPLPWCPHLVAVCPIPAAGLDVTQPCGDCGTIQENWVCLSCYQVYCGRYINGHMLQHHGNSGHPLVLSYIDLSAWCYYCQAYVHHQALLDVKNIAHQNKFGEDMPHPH

Row | IC50 [1] [nM] | inhibition [2] [%] | IC50 (Histone deacetylase 1) [nM] | IC50 (Histone deacetylase 3) [nM] | IC50 (Histone deacetylase 2) [nM] | IC50 (Histone deacetylase 5) [nM] | IC50 (Histone deacetylase 8) [nM] | IC50 [3] [nM] | SMILES
1 | 15400 | – | – | – | – | – | – | – | Cc1cc(C)c(CNC(=O)c2cnn(-c3ccccc3)c2C)c(=O)[nH]1
2 | – | 4 | 830 | 1480 | 2360 | 101000 | 2080 | 10 | Cc1cc(C)c(CNC(=O)c2cnn(-c3cccc(NC(=O)CCCCCCC(=O)NO)c3)c2C)c(=O)[nH]1

Reference: ChEMBL document CHEMBL4613315, “Design of First-in-Class Dual EZH2/HDAC Inhibitor: Biochemical Activity and Biological Evaluation in Cancer Cells” (ACS Med Chem Lett, 2020)
